Assay [1] addresses T1, TrkB ECD truncates (Rattus norvegicus, UniProt Q63604).
T1 construct: made in house
The assay is described as follows: Mapping assay with TrkB ECD truncation mutants. Type of assay: binding. The following applies: FIG. 18. On the procedure: BDNF is known to bind to the region of the TrkB ECD that contains the third leucine-rich motif (LRM), the second cysteine cluster (CC) domain, and the Immunoglobulin 2 (Ig2) domain (Haniu et al., J. Biol. Chem., 272:25296-303, 1997). To map where 7,8-dihydroxyflavone binds on the TrkB ECD, truncation mutants of the ECD were made and in vitro binding assays were conducted.

Assay [2] relates to progenitor proliferation in hippocampus. Kind of assay: Neurogenesis analysis in hippocampus (BrdU). Format: in vivo, C57BL/6J mice. As to conditions: 5 mg/kg daily for 21 days, compared to vehicle control, FIGS. 32 and 33. On the procedure: Adult male mice (2-3 months old) were orally injected with saline, 4′-DMA-7,8-DHF and 7,8-DHF (5 mg/kg) for 21 days. Then BrdU (50 mg/kg) was i.p. injected. In 2 hours, the mice were perfused with 4% paraformaldehyde. Immunohistochemical staining was performed on formalin-fixed paraffin-embedded sections. Sections from brain were cut, deparaffinized in xylene and rehydrated in graded alcohols. The slides were boiled in 10 mM citric acid (pH 6.0) for 10 minutes followed by an incubation in 2 N HCl for 10 minutes in room temperature. The slides were then permeabilized and blocked with 1% BSA in 0.2% PBST. The incorporated BrdU were stained using anti-BrdU-FITC (Abcam, Inc; Cambridge, Mass.) at 4° C. for 16 hours. After three washes in PBS, the cells were stained with DAPI for another 10 minutes at room temperature. The slides were mounted with AquaMount (Lerner Laboratories; Pittsburgh, Pa.) containing 0.01% 1,4-diazobicyclo(2,2,2)octane and examined under a fluorescence microscope.
To test whether increasing TrkB activation by 4′-dimethylamino-7,8-dihydroxyflavone would elevate neurogenesis, adult male C57BL/6J mice were injected daily for 21 days with either vehicle, 7,8-DHF, or 4′-DMA-7,8-DHF (5 mg/kg). At the end of treatment (day 21), the animals were injected with BrdU (50 mg/kg, i.p.) to label the dividing cells and were sacrificed 2 hours later. […]

The source of these data is patent US9895344B2, “Treating various disorders with 7,8-dihydroxyflavone and derivatives thereof” (EMORY UNIVERSITY, priority 2008, dated 2018).

Consider `O=c1cc(-c2ccccc2)oc2c(O)c(O)ccc12` [7,8-dihydroxyflavone], for which, in assay [1], the “association with the ECD” value is recorded as “strongly associated” and the “binding to the ICD” value is “did not bind”. For the same compound, in assay [2], the “neurogenesis (BrdU)” value is “increased neurogenesis”.
